Data reported in patent US20240316055A1, “METHODS FOR TREATING LEIGH SYNDROME” (DBCC Research, LLC, priority 2023, published 2024).

Assays:
Assay type in all cases: cell-based
[1] = system: ECHS1 Fibroblast cells; assay: Propionate potency screen (cell viability, DAPI nuclei count); conditions: for concentration-dependent curves: propionate potency screen, FIG. 4; for Propionate assay hits: 10 mM propionate medium, 96 hours, 3-fold serial dilution starting at 10 uM, Z-score >2
Procedure: The suspension was centrifuged at 200x g for 5 min. The suspension was discarded and the pellet was resuspended in the 10 mM propionate medium (DMEM+10% FBS+10 mM sodium propionate) and seeded at 750 cells/well (50 μL) into the compound wells (1 μM and 10 μM). For the positive control experiment, the cells were suspended in 10 mM propionate medium +5.5 mM glucose +0.01% DMSO and seeded at 750 cells/well (50 μL) into the blank wells. For the negative control experiment, the cells were suspended in the 10 mM propionate medium +0.01% DMSO and seeded at 750 cells/well (50 μL) into the blank wells. […] The plates were then washed 3x with 50 uL/well of PBS. The cells were stained with 25 μL/well of a solution DAPI and left at room temperature for 1 hr. The plates were then washed 3x with 50 uL/well of PBS prior to imaging. Agilent BioTek EL406 Microplate Washer Dispenser was used for the cell fixation and staining protocol. The plates were imaged using GE InCell2200 Cell Analyzer using PerkinElmer Columbus software quantification protocol. The data was analyzed using Genedata, Vortex, and Abase software. A Z-score value of >2 was used for both the Prestwick/Selleck and SPECS library (based on the negative control population) to determine hit selection.
ECHS1 Fibroblast cells were harvested at 70-80% confluent with trypsin and suspended in DMEM+10% FBS. The suspension was centrifuged at 200x g for 5 min. The suspension was discarded and the pellet was resuspended in the either the 5.5 mM galactose medium (DMEM+10% FBS+5.5 mM of galactose) or the 10 mM propionate medium (DMEM+10% FBS+10 mM sodium propionate). […] For the positive control experiment, the cells were suspended in either the 5.5 mM galactose medium or 10 mM propionate medium+5.5 mM glucose+0.01% DMSO and seeded at 750 cells/well (50 μL) into the blank wells. For the negative control experiment, the cells were suspended in the 5.5 mM galactose or 10 mM propionate medium +0.01% DMSO and seeded at 750 cells/well (50 μL) into the blank wells. […] The plates were then washed 3x with 50 μL/well of PBS. The cells were stained with 25 μL/well of a solution of DAPI and left at room temperature for 1 hr. The plates were then washed 3x with 50 μL/well of PBS prior to imaging. Agilent BioTek EL406 Microplate Washer Dispenser was used for the cell fixation and staining protocol. The plates were imaged using GE InCell2200 Cell Analyzer using PerkinElmer Columbus software quantification protocol. The data was analyzed using Genedata, Vortex, and Abase software. A Z-score value of >2 was used for both the Prestwick/Selleck and SPECS library (based on the negative control population) to determine hit selection.

[2] = system: ECHS1 Fibroblast cells; assay: Galactose potency screen (cell viability, DAPI nuclei count); conditions: for Galactose assay hits: 5.5 mM galactose medium, 96 hours, 3-fold serial dilution starting at 10 uM, Z-score >2
Procedure: Galactose Screen: Compound library plates were obtained from Prestwick/Selleck and SPECS (7,591 compounds total, 27 compounds/plate/concentration at 1 μM and 10 μM, 384-well plates). ECHS1 Fibroblast cells were harvested at 95% confluent with trypsin and suspended in Dulbecco's Modified Eagle Medium (DMEM)+10% Fetal Bovine Serum (FBS). The suspension was centrifuged at 200x g for 5 min. The suspension was discarded and the pellet was resuspended in the 5.5 mM galactose medium (DMEM+10% FBS+5.5 mM galactose) and seeded at 750 cells/well (50 μL) into the compound wells (1 μM and 10 μM). For the positive control experiment, the cells were suspended in 5.5 mM galactose medium+5.5 mM glucose+0.01% DMSO and seeded at 750 cells/well (50 μL) into the blank wells. For the negative control experiment, the cells were suspended in the 5.5 mM galactose medium+0.01% DMSO and seeded at 750 cells/well (50 μL) into the blank wells. The seeded plates were incubated at 37° C. for 96 hours, then 15 μL/well of 16% paraformaldehyde solution was added to the plates and allowed to sit for 15 min to fix the cells. The plates were then washed 3x with 50 μL/well of phosphate-buffered saline (PBS). The cells were stained with […] of a solution of 4,6-diamidino-2-phenylindole dilactate (DAPI, Invitrogen) and left at room temperature for 1 hr. The plates were then washed 3x with 50 μL/well of PBS prior to imaging. Agilent BioTek EL406 Microplate Washer Dispenser was used for the cell fixation and staining protocol. The plates were imaged using GE InCell2200 Cell Analyzer using PerkinElmer Columbus software quantification protocol. The data was analyzed using Genedata, Vortex, and Abase software. A Z-score value of >2 was used for the Prestwick/Selleck compound library and >3 for the SPECS library (based on the negative control population) to determine hit selection.
ECHS1 Fibroblast cells were harvested at 70-80% confluent with trypsin and suspended in DMEM+10% FBS. The suspension was centrifuged at 200x g for 5 min. The suspension was discarded and the pellet was resuspended in the either the 5.5 mM galactose medium (DMEM+10% FBS+5.5 mM of galactose) or the 10 mM propionate medium (DMEM+10% FBS+10 mM sodium propionate). The cells were seeded at 750 cells/well (50 μL) into a 384-well plate containing the test compounds (3-fold serial dilution across 10 plates, starting at 10 uM). For the positive control experiment, the cells were suspended in either the 5.5 mM galactose medium or 10 mM propionate medium+5.5 mM glucose+0.01% DMSO and seeded at 750 cells/well (50 μL) into the blank wells. For the negative control experiment, the cells were suspended in the 5.5 mM galactose or 10 mM propionate medium +0.01% DMSO and seeded at 750 cells/well (50 μL) into the blank wells. The seeded plates were incubated at 37° C. for 96 hours, then 15 μL/well of 16% paraformaldehyde solution was added to the plates and allowed to sit for 15 min to fix the cells. The plates were then washed 3x with 50 μL/well of PBS. The cells were stained with 25 μL/well of a solution of DAPI and left at room temperature for 1 hr. The plates were then washed 3x with 50 μL/well of PBS prior to imaging. Agilent BioTek EL406 Microplate Washer Dispenser was used for the cell fixation and staining protocol. The plates were imaged using GE InCell2200 Cell Analyzer using PerkinElmer Columbus software quantification protocol. The data was analyzed using Genedata, Vortex, and Abase software. A Z-score value of >2 was used for both the Prestwick/Selleck and SPECS library (based on the negative control population) to determine hit selection.

[3] = system: ECHS1 patient-derived fibroblasts; assay: Mitochondrial respiration assay (Seahorse); conditions: 48 hours; for respiration: glucose or galactose conditions, 1, 5 or 10 μM
Source text: To assess the mechanism of action of hit compounds from the screens of previous Examples, which were based on rescue of viability after metabolic challenge, Seahorse assay was used to measure mitochondrial function in response to treatment at multiple concentrations. The Seahorse assay measures the following parameters: oxygen consumption; basal respiration rate; ATP-linked respiration; maximal respiration; reserve capacity; and ATP production rate. At baseline (no treatment), the ECHS1 patient-derived fibroblasts had lower respiration rates than the control fibroblasts in glucose culturing conditions (20% reduction) and in galactose culturing conditions (30% reduction).
ECHS1 patient-derived fibroblasts and age-matched and sex-matched control fibroblasts were initially grown in standard media (DMEM+2 mM glutamine+1 mM pyruvate) containing 10 mM glucose as the energy source. Cells were seeded into specialized 96-well plates at a density of 10,000 cells per well. One day after plating, cells were treated with the test compounds at the concentrations of 0, 1, 5, or 10 μM. Half of the samples were cultured in 10 mM glucose media in addition to the test compounds. The remaining half of the sample were cultured in 10 mM galactose media, which is a metabolic challenge, in addition to the test compound. Test compounds were incubated with cells for 48 hours. According to the standard Seahorse protocol, the following stressors were added to cells in sequential order: 2 μM oligomycin; 5 μM carbonyl cyanide-4-(trifluoromethoxy)phenylhydrazone (FCCP); 9 μM FCCP; 2 μM rotenone and 2 μM antimycin A. Data were normalized to cell number per well using a Hoechst stain for cell nuclei. Two rounds of experiments were conducted. The results were consistent between the two rounds.

| SMILES | concentration-dependent curves [1] | Propionate assay hits [1] | Galactose assay hits [2] | also measured |
| --- | --- | --- | --- | --- |
| CNC(C)C(=O)NC1CCCCC2CCC(C(=O)NC(c3ccccc3)c3cn(CCCCc4ccc(CCCCn5cc(C(NC(=O)C6CCC7CCCCC(NC(=O)C(C)NC)C(=O)N76)c6ccccc6)nn5)cc4)nn3)N2C1=O [SM-164, (3S,6S, 10aS)-N-[(S)-[1-[4-[4-[4-[4-[(S)-[[(3S,6S,10aS)-6-[[(2S)-2-(methylamino)propanoyl]amino]-5-oxo-2,3,6,7,8,9,10,10a-octahydro-1H-pyrrolo[1,2-a]azocine-3-carbonyl]amino]-phenylmethyl]triazol-1-yl]butyl]phenyl]butyl]triazol-4-yl]-phenylmethyl]-6-[(2S)-2-(methylamino)propanoyl]amino]-5-oxo-2,3,6,7,8,9,10,10a-octahydro-1H-pyrrolo[1,2-a]azocine-3-carboxamide] | non-linear response | – | – | – |
| CCC(=O)Nc1cccc(Oc2nc(Nc3ccc(N4CCN(C)CC4)cc3OC)ncc2Cl)c1 [WZ4003, N-[3-[5-chloro-2-[2-methoxy-4-(4-methylpiperazin-1-yl)anilino]pyrimidin-4-yl]oxyphenyl]propanamide] | non-linear response | – | – | nuclei count ([1]; propionate assay, FIG. 3): concentration-dependent increase |
| Fc1ccc(-c2nc(-c3c(F)cccc3F)[nH]c2-c2ccncc2)cc1 [TA-01, 4-[2-(2,6-difluorophenyl)-4-(4-fluorophenyl)-1H-imidazol-5-yl]pyridine] | – | hits | hits | – |
| COc1nccc(-c2c(-c3ccc(F)cc3)ncn2[C@H]2CC[C@H](O)CC2)n1 [SB-239063, 4-[4-(4-fluorophenyl)-5-(2-methoxypyrimidin-4-yl)imidazol-1-yl]cyclohexan-1-ol] | – | – | – | nuclei count ([2]; galactose assay, FIG. 1): concentration-dependent increase; concentration-dependent curves ([2]; galactose potency screen, FIG. 2): non-linear response |
| CCCCOc1c(C(=O)c2c(F)cc(C)cc2F)cnc2n[nH]cc12 [BMS-265246, (4-butoxy-2H-pyrazolo[3,4-b]pyridin-5-yl)-(2,6-difluoro-4-methylphenyl)methanone] | non-linear response | – | – | – |
| Cc1cccc(-c2n[nH]cc2-c2ccc3ncccc3n2)n1 [RepSox, 2-[5-(6-methylpyridin-2-yl)-1H-pyrazol-4-yl]-1,5-naphthyridine] | – | hits | hits | respiration [3]: did not result in major changes |
| Cc1ccc(-n2nc(C(C)(C)C)cc2NC(=O)NCc2cc(F)ccc2Oc2ccc3c(cnn3CCO)c2)cc1 [pexmetinib] | non-linear response | hits | hits | increase in cell number per well ([3]; 1 μM, both galactose and glucose cultured plates): 14%; total ATP production ([3]; most pronounced in the 1-5 μM range): some recovery; maximal respiration ([3]; galactose-treated cells): less pronounced; maximal respiration ([3]; glucose-treated cells): increased to similar levels to the control cells |
| CCOC(=O)C1=C(C)NC(C)=C(C(=O)OC)C1c1cccc(Cl)c1Cl (stereo not shown) [felodipine, 5-O-ethyl 3-O-methyl 4-(2,3-dichlorophenyl)-2,6-dimethyl-1,4-dihydropyridine-3,5-dicarboxylate] | – | – | – | ATP production from glycolysis [3]: increased; basal and maximal respiration [3]: decreased; respiration [3]: did not result in major changes |
| COc1ccc(-n2c(C)c([N+](=O)[O-])c3ccc(O)cc32)cc1 [ID-8, 1-(4-methoxyphenyl)-2-methyl-3-nitroindol-6-ol] | non-linear response | – | – | – |
